These results are taken from patent US20100004222A1, “Amide Derivatives as Ion-Channel Ligands and Pharmaceutical Compositions and Methods of Using the Same” (Renovis, Inc., priority 2006, published 2010).

Data set [1] is described as follows: Pharmacokinetic evaluation following intravenous and oral administration in rats. In kind it is in vivo. The conditions noted are these: male, Sprague-Dawley, plasma, rat; for bioavailability: AUCinf (PO)/AUCinf (IV), dose normalized, PO 5 mg/kg, read-out: Oral Bioavailability F (%); for clearance: non-compartmental analysis, read-out: In vivo Clearance (converted). How it is done: Male Sprague-Dawley rats are acclimatized for at least 24 hours prior to experiment initiation. During acclimation period, all animals receive food and water ad libitum. However, food but not water is removed from the animal's cages at least 12 hours before initiation of the experiment. During the first 3 hours of experimentation, the animals receive only water ad libitum. At least three animal each are tested for intravenous and oral dosage. For intravenous formulation, compounds were dissolved (0.25 to 1 mg/mL) in a mixture of 3% dimethyl sulfoxide, 40% PEG 400 and the rest percentage of 40% Captisol in water (w/v). For oral formulation, compounds of this invention are dissolved (2 mg/mL) in a mixture of 5% of 10% Tween 80 in water (v/v) and 95% of 0.5% methyl cellulose in water (w/v). The animals are weighed before dosing. The determined body weight is used to calculate the dose volume for each animal.
Dose volume(mL/kg)=1 mg/kg/formulation concentration(mg/mL)
In instances where the formulation concentrations were less than 0.5 mg/mL, the dosing volume is about 2 mL/kg. PO rats are typically dosed through oral gavage at 2.5 mL/kg to achieve a dose level of 5 mg/kg. For IV dosing, blood samples are collected (using a pre-heparinized syringe) via the jugular vein catheter at 2, 5, 15, 30, 60, 120, 180, 300, 480, and 1440 minutes post dosing. For PO dosing, blood samples are collected (using a pre-heparinized syringe) via the jugular vein catheter before dosing and at 5, 15, 30, 60, 120, 180, 300, 480, and 1440 minutes post dosing. About 250 uL of blood is obtained at each time point from the animal. Equal volumes of 0.9% normal saline are replaced to prevent dehydration. The whole blood samples are maintained on ice until centrifugation. Blood samples are then centrifuged at 14,000 rpm for 10 minutes at 4° C. and the upper plasma layer transferred into a clean vial and stored at −80° C. The resulting plasma samples are then analyzed by liquid chromatography-tandem mass spectrometry. Following the measurement of plasma samples and dosing solutions, plasma concentration-time curve is plotted. Plasma exposure is calculated as the area under the concentration-time curve extrapolated to time infinite (AUCinf). The AUCinf is averaged and the oral bioavailability (% F) for individual animal is calculated as:
AUCinf (PO)/AUCinf (IV), normalized to their respective dose levels. The % F is reported as the mean % F of all animals dosed orally with the compound of the invention at the specified level (Table 6).
In vivo clearance in the rat was calculated by conducting a non-compartmental analysis of the pharmacokinetic profile using WinNonlin software.

The target in another data set is VR1 (Homo sapiens, UniProt Q8NER1). Briefly: Calcium uptake assay, low pH (proton) agonist. The format is cell-based. The arrangement: expressed in transfected cells; host or cells: T-REx HEK 293 (Invitrogen), pcDNA5/TO vector. The conditions noted are these: HEK293; 0.3 μM compound; low pH (protons) as agonist; HEK 293 cells expressing hVR1; read-out: Low pH % Inhib. @ 0.3 μM.
VR1, sequence (Q8NER1 whole entry): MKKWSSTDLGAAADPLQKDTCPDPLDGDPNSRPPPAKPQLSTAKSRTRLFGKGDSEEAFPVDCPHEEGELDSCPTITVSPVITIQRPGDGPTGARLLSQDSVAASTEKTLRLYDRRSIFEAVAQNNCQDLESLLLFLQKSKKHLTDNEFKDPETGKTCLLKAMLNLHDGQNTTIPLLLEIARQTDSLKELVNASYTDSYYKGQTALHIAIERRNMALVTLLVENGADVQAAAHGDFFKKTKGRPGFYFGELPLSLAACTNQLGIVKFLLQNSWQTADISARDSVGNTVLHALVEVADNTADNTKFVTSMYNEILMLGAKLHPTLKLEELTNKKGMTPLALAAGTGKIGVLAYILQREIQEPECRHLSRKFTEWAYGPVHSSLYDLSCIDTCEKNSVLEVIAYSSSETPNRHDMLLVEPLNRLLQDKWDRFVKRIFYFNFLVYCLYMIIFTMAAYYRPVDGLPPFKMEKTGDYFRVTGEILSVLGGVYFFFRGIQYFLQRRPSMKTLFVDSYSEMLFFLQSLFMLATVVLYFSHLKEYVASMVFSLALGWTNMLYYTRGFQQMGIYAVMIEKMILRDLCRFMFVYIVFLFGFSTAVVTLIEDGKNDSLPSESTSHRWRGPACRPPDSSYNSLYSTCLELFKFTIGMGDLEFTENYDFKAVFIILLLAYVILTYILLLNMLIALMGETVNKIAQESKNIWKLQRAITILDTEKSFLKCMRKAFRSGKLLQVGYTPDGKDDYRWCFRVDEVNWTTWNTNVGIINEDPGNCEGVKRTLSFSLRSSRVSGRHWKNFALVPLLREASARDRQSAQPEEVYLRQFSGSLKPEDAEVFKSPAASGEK

Consider `CC(C)(C)C#Cc1ccc(C(=O)Nc2ccc3c(c2)OCC(CO)N3)c(F)c1` (stereo not shown) [Compound 138], for which, in data set [1], the bioavailability was 36% and the clearance was 38.7 mL/min/kg.

Turning to `O=C(Nc1ccc2c(c1)OCCN2)c1ccc(C#CC2CC2)nc1Cl` [Compound 119], the inhibition at 0.3 µM on VR1 was 0%.

For the molecule `Cc1cc(/C=C/C(F)(F)F)ccc1C(=O)Nc1ccc2c(c1)OCCN2` [Compound 118], the clearance in data set [1] was 17.7 mL/min/kg.

On to `O=C(Nc1ccc2c(c1)OCCN2)c1ccc(/C=C/C(F)(F)F)cc1F` [Compound 134], for which, in data set [1], the bioavailability was 63% and the clearance is 85.1 mL/min/kg.

Take `Cc1cc(/C=C/C(F)(F)F)ccc1C(=O)Nc1ccc2c(c1)OCC(CO)N2` (stereo not shown) [Compound 131]: in data set [1], the bioavailability was > 100% and the clearance was 21.6 mL/min/kg.

For `Cc1cc(/C=C/C(F)(F)F)ccc1C(=O)Nc1cnc2c(c1)CC(O)CC2` (stereo not shown) [Compound 315, (E)-N-(6-hydroxy-5,6,7,8-tetrahydroquinolol-3-yl)-2-methyl-4-(3,3,3-trifluoroprop-1-enyl)benzamide], the inhibition at 0.3 µM at VR1 worked out at 51.3%.

As for `CC(C)(C)C#Cc1ccc(C(=O)Nc2ccc3c(c2)OC[C@H](CO)N3)c(F)c1` [Compound 172], in data set [1], the bioavailability was 76% and the clearance was 41.2 mL/min/kg.

Regarding `Cc1cc(/C=C/C(F)(F)F)ccc1C(=O)Nc1ccc2c(CO)n[nH]c2c1` [Compound 231], the inhibition at 0.3 µM at VR1 turned out to be 0%.

For the molecule `Cc1nc2cc(NC(=O)c3ccc(/C=C/C(F)(F)F)cc3C)ccc2s1` [Compound 188], in data set [1], the bioavailability was found to be 8% and the clearance was 7.7 mL/min/kg.

For the molecule `COc1cc(/C=C/C(F)(F)F)ccc1C(=O)Nc1ccc2c(c1)OCCO2` [Compound 123], the clearance in data set [1] was 32 mL/min/kg.

With `Cc1cc(/C=C/C(F)(F)F)ccc1C(=O)Nc1ccc2c(c1)C(=O)CCC2` [Compound 306, (E)-2-methyl-N-(8-oxo-5,6-7,8-tetrahydronaphthylen-2-yl)-4(3,3,3-trifluoroprop-1-enyl)benzamide], the inhibition at 0.3 µM on VR1 worked out at 51%.

Take `C/C(=C\c1ccc(C(=O)Nc2cnc3ccccc3c2)c(C)c1)C(F)(F)F` [Compound 316]: on VR1, the inhibition at 0.3 µM was found to be 52%.

With `Cc1cc(/C=C/C(F)(F)F)ccc1C(=O)Nc1ccc2cc(CO)cnc2c1` [Compound 228], in data set [1], the bioavailability came out at 39% and the clearance was 37.4 mL/min/kg.

Take `Cc1cc(C#CC(C)(C)C)ccc1C(=O)Nc1cccc2c(Cl)nccc12` [Compound 199]: the inhibition at 0.3 µM on VR1 stood at 67%.

`CC(C)(C)C#Cc1ccc(C(=O)Nc2ccc3c(c2)OCC(CO)N3)c(Cl)c1` (stereo not shown) [Compound 158]: in data set [1], the bioavailability is 42% and the clearance is 13 mL/min/kg.

On to `Cc1nc2cc(NC(=O)c3ccc(C#CC(C)(C)C)cc3C)ccc2s1` [Compound 162], for which, in data set [1], the bioavailability was 2% and the clearance was 44.3 mL/min/kg.

For the molecule `O=C(Nc1cccc2cnccc12)c1ccc(/C=C/C(F)(F)F)cc1F` [Compound 160], in data set [1], the bioavailability was 22% and the clearance was 85.4 mL/min/kg.

For `Cc1cc(C#CC2CCCC2)ccc1C(=O)Nc1ccc2c(c1)OCC(CO)N2` (stereo not shown) [Compound 125], in data set [1], the bioavailability is 17% and the clearance is 33.7 mL/min/kg.

Regarding `O=C(Nc1ccc2c(c1)OCC(CO)N2)c1ccc(C#CC2CC2)cc1F` (stereo not shown) [Compound 127], in data set [1], the bioavailability was found to be 66% and the clearance was 30.9 mL/min/kg.

Regarding `Cc1cc(/C=C/C(F)(F)F)ccc1C(=O)Nc1ccc2cccnc2c1` [Compound 224], in data set [1], the bioavailability was > 100% and the clearance was 9.97 mL/min/kg.

For `Cc1cc(/C=C/C(F)(F)F)ccc1C(=O)Nc1cnc2[nH]ccc2c1` [Compound 230], in data set [1], the bioavailability came out at 17% and the clearance is 15.3 mL/min/kg.

Take `CC(=O)c1cnc2cc(NC(=O)c3ccc(/C=C/C(F)(F)F)cc3C)cnc2c1` [Compound 324]: the inhibition at 0.3 µM on VR1 came out at 0.74%.

As for `O=C(Nc1ccc2c(c1)OCC(CO)N2)c1c(F)cc(C#CC2CC2)cc1F` (stereo not shown) [Compound 129], in data set [1], the bioavailability was found to be 68% and the clearance is 1.88 mL/min/kg.

`CS(=O)(=O)c1cc(C#CC2CCCC2)ccc1C(=O)Nc1ccc2c(c1)OCCO2` [Compound 159]: the inhibition at 0.3 µM at VR1 was determined as 0%.

For the molecule `O=C(Nc1ccc2c(c1)OCC(CO)N2)c1ccc(/C=C/C(F)(F)F)cc1F` (stereo not shown) [Compound 144], in data set [1], the bioavailability came to 68% and the clearance was 31.5 mL/min/kg.

For `Cc1cc(C#CC(C)(C)C)ccc1C(=O)Nc1cnc2ccccc2c1` [Compound 181], in data set [1], the bioavailability came out at 1% and the clearance is 41.8 mL/min/kg.

In the case of `Cc1cc(/C=C/C(F)(F)F)ccc1C(=O)Nc1ccc2c(c1)C(=O)N(CCO)C2=O` [Compound 404, (E)-N-(2-(2-hydroxyethyl)-1,3-dioxoisoindolin-5-yl)-2-methyl-(3,3,3-trifluoroprop-1-enyl)benzamide], at VR1, the inhibition at 0.3 µM amounted to 10%.

As to `O=C(Nc1ccc2c(c1)OCC(CO)N2)c1ccc(C#CC2CC2)cc1Cl` (stereo not shown) [Compound 156], the inhibition at 0.3 µM on VR1 came to 102%.

`Cc1cc(C#CC(C)(C)C)ccc1C(=O)Nc1ccc2c(c1)OC[C@@H](CO)N2` [Compound 184]: in data set [1], the bioavailability is 17% and the clearance was 35.2 mL/min/kg.

For `Cc1cc(/C=C/C(F)(F)F)ccc1C(=O)Nc1ccc2c(c1)N(C(=O)C1CC1)CC2` [Compound 402, (E)-N-(1-cyclopropanecarbonyl-2,3-dihydro-1H-indol-6-yl)-2-methyl-4-(3,3,3-trifluoro-prop-1-enyl)benzamide], the inhibition at 0.3 µM at VR1 came out at 0%.

In the case of `CC(=O)N1CCCc2ccc(NC(=O)c3ccc(/C=C/C(F)(F)F)cc3C)cc21` [Compound 322, (E)-N-(1-acetyl-1,2,3,4-tetrahydroquinolin-7-yl)-2-methyl-4-(3,3,3-trifluoroprop-1-enyl)benzamide], at VR1, the inhibition at 0.3 µM stood at 42.7%.

Regarding `Cc1cc(/C=C/C(F)(F)F)ccc1C(=O)Nc1cnc2cc(C(C)O)cnc2c1` (stereo not shown) [Compound 320, (E)-N-(7-(1-hydroxyethyl)-1,5-naphthyridin-3-yl)-2-methyl-4-(3,33-trifluoroprop-1-enyl)benzamide], the inhibition at 0.3 µM on VR1 worked out at 47%.

As for `Cc1cc(C#CC(C)(C)C)ccc1C(=O)Nc1cccc2cnccc12` [Compound 163], in data set [1], the bioavailability stood at 53% and the clearance is 110 mL/min/kg.

For `Cc1cc(/C=C/C(F)(F)F)ccc1C(=O)Nc1ccc2ccc(O)nc2n1` [Compound 311, (E)-N-(7-hydroxy-1,8-naphthyridin-2-yl)-2-methyl-4-(3,3,3-trifluoroprop-1-en-1)benzamide], the inhibition at 0.3 µM on VR1 was found to be 20%.

Regarding `Cc1cc(/C=C/C(F)(F)F)ccc1C(=O)Nc1cnc2cc(C(C)(C)O)cnc2c1` [Compound 326, (E)-N-(7-(2-hydroxypropan-2-yl)-1,5-naphthyridin-3-yl)-2-methyl-4-(3,3,3-trifluoroprop-1-enyl)benzamide], the inhibition at 0.3 µM at VR1 turned out to be 6.76%.

Consider `CC(C)(C)C#Cc1ccc(C(=O)Nc2cnc3ccccc3c2)c(Cl)c1` [Compound 164], for which, in data set [1], the bioavailability was determined as 1% and the clearance is 33.5 mL/min/kg.

Regarding `Cc1cc(/C=C/C(F)(F)F)ccc1C(=O)Nc1ccc2cc(C(=O)O)cnc2c1` [Compound 301], the inhibition at 0.3 µM at VR1 came out at 43%.

As to `Cc1cc(/C=C/C(F)(F)F)ccc1C(=O)Nc1cnc2ncccc2c1` [Compound 321, (E)-2-methyl-N-(1,8-naphthyridin-3-yl)-4-(3,3,3-trifluoroprop-1-enyl)benzamide], the inhibition at 0.3 µM on VR1 was found to be 41.5%.

With `O=C(Nc1ccc2c(c1)OCC(CO)N2)c1ccc(C#CC2CCCC2)cc1F` (stereo not shown) [Compound 126], in data set [1], the bioavailability turned out to be 35% and the clearance was 44.9 mL/min/kg.

For the molecule `Cc1cc(C#CC2CC2)ccc1C(=O)Nc1ccc2c(c1)OCC(CO)N2` (stereo not shown) [Compound 124], in data set [1], the bioavailability amounted to 67% and the clearance was 20.7 mL/min/kg.

Consider `O=C(Nc1ccc2c(c1)OCC(CO)N2)c1ccc(/C=C/C(F)(F)F)cc1Cl` (stereo not shown) [Compound 157], for which, in data set [1], the bioavailability was 83% and the clearance was 15.6 mL/min/kg.

For the molecule `COc1cc(/C=C/C(F)(F)F)ccc1C(=O)Nc1ccc2c(c1)OCCN2` [Compound 122], the clearance in data set [1] was 61 mL/min/kg.

As usually defined, the bioavailability is dose-corrected exposure relative to a reference, in per cent.
